Test results taken from US6828330B2, “Quinuclidine-substituted hetero-bicyclic aromatic compounds for the treatment of disease” (Pharmacia & Upjohn Company, priority 2001, dated 2004).
Where a name gives a salt, the structure may show the parent alone.

Biological target: T1, α7 nAChR (Rattus norvegicus, UniProt Q05941)
T1 construct: the brains (whole brain minus cerebellum) are dissected quickly, weighed and homogenized; from tissue; host or cells: rat brain (whole brain minus cerebellum) membranes
Assay: [3H]-MLA competition binding assay in rat brain membranes
Details: inhibition of [3H]-MLA binding (3.0 to 4.0 nM), rat brain homogenate (whole brain minus cerebellum), 1 hr at 25° C, Cheng-Prusoff
Procedure: Materials and Methods for Identifying Binding Constants
Membrane Preparation. Male Sprague-Dawley rats (300-350 g) are sacrificed by decapitation and the brains (whole brain minus cerebellum) are dissected quickly, weighed and homogenized in 9 volumes/g wet weight of ice-cold 0.32M sucrose using a rotating pestle on setting 50 (10 up and down strokes). The homogenate is centrifuged at 1,000×g for 10 minutes at 4° C. The supernatant is collected and centrifuged at 20,000×g for 20 minutes at 4° C. The resulting pellet is resuspended to a protein concentration of 1-8 mg/mL. Aliquots of 5 mL homogenate are frozen at −80° C. until needed for the assay. On the day of the assay, aliquots are thawed at room temperature and diluted with Kreb's −20 mM Hepes buffer pH 7.0 (at room temperature) containing 4.16 mM NaHCO3, 0.44 mM KH2PO4, 127 mM NaCl, 5.36 mM KCl, 1.26 mM CaCl2, and 0.98 mM MgCl2, so that 25-150 μg protein are added per test tube. Proteins are determined by the Bradford method (Bradford, M. M., Anal. Biochem., 72, 248-254, 1976) using bovine serum albumin as the standard.
Binding Assay. For saturation studies, 0.4 mL homogenate are added to test tubes containing buffer and various concentrations of radioligand, and are incubated in a final volume of 0.5 mL for 1 hr at 25° C. Nonspecific binding was determined in tissues incubated in parallel in the presence of 0.05 ml MLA for a final concentration of 1 μM MLA, added before the radioligand. In competition studies, drugs are added in increasing concentrations to the test tubes before addition of 0.05 ml [^3H]-MLA for a final concentration of 3.0 to 4.0 nM [^3H]-MLA. The incubations are terminated by rapid vacuum filtration through Whatman GF/B glass filter paper mounted on a 48 well Brandel cell harvester. Filters are pre-soaked in 50 mM Tris HCl pH 7.0-0.05% polyethylenimine. The filters are rapidly washed two times with 5 mL aliquots of cold 0.9% saline and then counted for radioactivity by liquid scintillation spectrometry.
Data Analysis. In competition binding studies, the inhibition constant (Ki) was calculated from the concentration dependent inhibition of [^3H]-MLA binding obtained from non-linear regression fitting program according to the Cheng-Prusoff equation (Cheng, Y. C. and Prussoff, W. H., Biochem. Pharmacol., 22, pp. 3099-3108, 1973). Hill coefficients were obtained using non-linear regression (GraphPad Prism sigmoidal dose-response with variable slope).

T1 sequence (Q05941 23-502): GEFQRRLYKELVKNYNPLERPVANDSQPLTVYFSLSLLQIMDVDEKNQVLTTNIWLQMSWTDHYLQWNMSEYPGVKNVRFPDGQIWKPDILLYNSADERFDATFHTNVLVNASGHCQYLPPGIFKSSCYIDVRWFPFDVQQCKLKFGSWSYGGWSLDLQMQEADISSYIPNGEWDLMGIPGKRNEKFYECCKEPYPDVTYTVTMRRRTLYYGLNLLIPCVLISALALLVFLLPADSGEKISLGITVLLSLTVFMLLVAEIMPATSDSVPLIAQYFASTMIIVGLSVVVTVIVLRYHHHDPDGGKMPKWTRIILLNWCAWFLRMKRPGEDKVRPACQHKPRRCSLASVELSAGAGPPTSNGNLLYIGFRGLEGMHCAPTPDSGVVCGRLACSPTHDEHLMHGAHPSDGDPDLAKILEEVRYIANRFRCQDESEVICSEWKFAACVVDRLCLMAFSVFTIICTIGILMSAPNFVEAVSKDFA

Structure (SMILES) | Ki
O=C(N[C@H]1CN2CCC1CC2)c1ccc2ncsc2c1 [Example 5, N-((3R)1-azabicyclo[2.2.2]oct-3-yl)-1,3-benzothiazole-6-carboxamide.fumarate] | 30 nM
O=C(N[C@H]1CN2CCC1CC2)c1ccc2ocnc2c1 [Example 3, N-((3R)1-azabicyclo[2.2.2]oct-3-yl)-1,3-benzoxazole-5-carboxamide.fumarate] | 32 nM
Cc1nc2cc(C(=O)N[C@H]3CN4CCC3CC4)ccc2o1 [Example 4, N-((3R)1-azabicyclo[2.2.2]oct-3-yl)-2-methyl-1,3-benzoxazole-5-carboxamide.fumarate] | 305 nM
C[C@H]1[C@H](NC(=O)c2ccc3ncsc3c2)C2CCN1CC2 [Example 11, N-[(2S,3R)-2-methyl-1-azabicyclo[2.2.2]oct-3-yl]-1,3-benzothiazole-6-carboxamide hydrochloride] | 92 nM
O=C(N[C@H]1CN2CCC1CC2)c1ccc2c(c1)OCO2 [Example 7, N-((3R)-1-azabicyclo[2.2.2]oct-3-yl)-1,3-benzodioxole-5-carboxamide, 4-methylbenzenesulfonate] | 24 nM
C[C@H]1[C@H](NC(=O)c2nc3ccccc3s2)C2CCN1CC2 [Example 1005, N-[(2S,3R)-2-methyl-1-azabicyclo[2.2.2]oct-3-yl]-1,3-benzothiazole-2-carboxamide hydrochloride] | 73 nM
O=C(N[C@H]1CN2CCC1CC2)c1ccc2c(c1)CCC2 [Example 6, N-((3R)1-azabicyclo[2.2.2]oct-3-yl)indane-5-carboxamide.fumarate] | 110 nM
